Series [1] deals with NCI-H460. As to the kind of experiment: Cytotoxicity against human NCI-H460 cells assessed as reduction in cell viability after 72 hrs by MTT assay. The note with it: NCI-H460, 72 h. It is filed as functional, cell-based. Background: Formazan colour is commonly taken as a measure of viable cells.
Series [2] concerns HeLa. As to the kind of experiment: Cytotoxicity against human HeLa cells assessed as reduction in cell viability after 72 hrs by MTT assay. It is filed as functional, cell-based.
The subject of series [3] is NCI-H460. As to the kind of experiment: Induction of apoptosis in human NCI-H460 cells assessed as viable cells at 10 uM after 24 hrs by Annexin V/propidium iodide-staining based flow cytometry (reference value: 96.49 +/- 0.96%). The class given is functional. The note with it: NCI-H460, 24 h, read-out: Activity.
The test system of series [4] is A549. As to the kind of experiment: Induction of apoptosis in human A549 cells assessed as viable cells at 10 uM after 24 hrs by Annexin V/propidium iodide-staining based flow cytometry (reference value: 96.45 +/- 2.89%). The class given is functional. The conditions noted are these: A549, 24 h, read-out: Activity. (In general: A flow cytometer gives signals particle by particle.)

For series [5], the system named is NCI-H460. As to the kind of experiment: Induction of apoptosis in human NCI-H460 cells assessed as early apoptotic cells at 10 uM after 24 hrs by Annexin V/propidium iodide-staining based flow cytometry (reference value: 0.45 +/- 0.01%). It is filed as functional.
Series [6] deals with NCI-H460. Nature of the series: Induction of apoptosis in human NCI-H460 cells assessed as late apoptotic cells at 10 uM after 24 hrs by Annexin V/propidium iodide-staining based flow cytometry (reference value: 0.93 +/- 0.04%). It is filed as functional.
Series [7] relates to NCI-H661. As to the kind of experiment: Induction of apoptosis in human NCI-H661 cells assessed as late apoptotic cells at 10 uM after 24 hrs by Annexin V/propidium iodide-staining based flow cytometry (reference value: 0.95 +/- 0.03%). It is filed as functional.
For series [8], the system named is HaCaT. Nature of the series: Induction of apoptosis in human HaCaT cells assessed as late apoptotic cells at 10 uM after 24 hrs by Annexin V/propidium iodide-staining based flow cytometry (reference value: 2.26 +/- 0.09%). It is filed as cell-based.
Series [9] deals with NCI-H460. Nature of the series: Induction of apoptosis in human NCI-H460 cells assessed as necrotic cells at 10 uM after 24 hrs by Annexin V/propidium iodide-staining based flow cytometry (reference value: 2.13 +/- 0.02%). The class given is functional.
Series [10] has as its system NCI-H661. As to the kind of experiment: Induction of apoptosis in human NCI-H661 cells assessed as necrotic cells at 10 uM after 24 hrs by Annexin V/propidium iodide-staining based flow cytometry (reference value: 2.58 +/- 0.05%). It is filed as functional.
For series [11], the system named is NCI-H460. As to the kind of experiment: Induction of ROS generation in human NCI-H460 cells assessed as increase DHE positive cells at 10 uM after 24 hrs by DHE-staining based flow cytometry. It is filed as functional, cell-based.
In series [12] the test system is HaCaT. Nature of the series: Induction of ROS generation in human HaCaT cells assessed as increase DHE positive cells at 10 uM after 24 hrs by DHE-staining based flow cytometry. The class given is cell-based.
Series [13] concerns A549. As to the kind of experiment: Induction of DNA damage response in human A549 cells assessed as increase in H2AX expression at 10 uM after 24 hrs by alexa fluor 488-staining based flow cytometry. The class given is functional, cell-based.
Series [14] has as its system NCI-H661. Nature of the series: Induction of DNA damage response in human NCI-H661 cells assessed as increase in H2AX expression at 10 uM after 24 hrs by alexa fluor 488-staining based flow cytometry. The class given is functional, cell-based.
Series [15] deals with Serine/threonine-protein kinase Chk2 (Homo sapiens) (UniProt O96017). Nature of the series: Induction of CHK2 phosphorylation at T68 in human MCF7 cells at 10 uM pretreated for 30 mins followed by 10 J/m'2 irradiation and measured after 1 hr by Western blot analysis. It is filed as cell-based. (A western blot detects proteins with antibodies after separation by electrophoresis.)

SMILES strings stand for the structures. pIC50: −log10 of the molar value. Active and inactive are the calls of the source. The rule behind the calls is not given here.

For orientation: pIC50 means −log10 of the IC50, conventionally taken in molar units.

Sequence of Serine/threonine-protein kinase Chk2 (Homo sapiens) (O96017 whole entry): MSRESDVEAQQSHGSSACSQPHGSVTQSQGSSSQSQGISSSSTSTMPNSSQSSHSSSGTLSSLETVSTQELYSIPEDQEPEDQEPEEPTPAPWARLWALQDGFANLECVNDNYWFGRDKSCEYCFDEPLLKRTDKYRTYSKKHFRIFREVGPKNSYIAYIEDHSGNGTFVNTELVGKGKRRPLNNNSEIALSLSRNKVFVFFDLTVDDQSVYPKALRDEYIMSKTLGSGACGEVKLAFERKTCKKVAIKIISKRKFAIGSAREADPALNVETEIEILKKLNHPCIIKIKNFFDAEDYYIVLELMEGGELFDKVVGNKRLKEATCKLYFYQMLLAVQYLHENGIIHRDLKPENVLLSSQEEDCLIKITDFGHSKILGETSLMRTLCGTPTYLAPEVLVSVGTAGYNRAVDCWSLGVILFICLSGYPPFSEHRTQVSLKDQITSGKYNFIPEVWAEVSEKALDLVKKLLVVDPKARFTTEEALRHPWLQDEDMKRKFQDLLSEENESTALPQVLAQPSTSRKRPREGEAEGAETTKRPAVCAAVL

`COC(=O)/C=C/C1(O)C=CC(=O)C=C1`: the pIC50 was 5.73 in series [1] and 5.01 in [2]. The viability at 10 µM in series [3] amounted to 89.1%; in [4], 92.8%. Besides, the Activity worked out at 0.21% in series [5]; 3.35% in [6]; 9.57% in series [7]; 2.85% in [8]; 7.31% in [9]; 44.82% in series [10]. For the same compound, in series [12], the Activity result is given as “Non-Toxic”. Further, the outcome in series [11], in series [13], in [14] and in series [15] was Active.

The values are drawn from ChEMBL document CHEMBL4422633, “Antioxidant-Inspired Drug Discovery: Antitumor Metabolite Is Formed in Situ from a Hydroxycinnamic Acid Derivative upon Free-Radical Scavenging” (J Med Chem, 2019).
